Reference: ChEMBL document CHEMBL1140259, “Isomeric thiazole derivatives as ligands for the neuropeptide Y5 receptor” (Bioorg Med Chem Lett, 2005)

The compounds below were run against T1, Neuropeptide Y receptor type 5 (Mus musculus) (UniProt O70342) (assay: Percent inhibition against mouse NPY5 receptor at 1 um).
T1 sequence (whole entry): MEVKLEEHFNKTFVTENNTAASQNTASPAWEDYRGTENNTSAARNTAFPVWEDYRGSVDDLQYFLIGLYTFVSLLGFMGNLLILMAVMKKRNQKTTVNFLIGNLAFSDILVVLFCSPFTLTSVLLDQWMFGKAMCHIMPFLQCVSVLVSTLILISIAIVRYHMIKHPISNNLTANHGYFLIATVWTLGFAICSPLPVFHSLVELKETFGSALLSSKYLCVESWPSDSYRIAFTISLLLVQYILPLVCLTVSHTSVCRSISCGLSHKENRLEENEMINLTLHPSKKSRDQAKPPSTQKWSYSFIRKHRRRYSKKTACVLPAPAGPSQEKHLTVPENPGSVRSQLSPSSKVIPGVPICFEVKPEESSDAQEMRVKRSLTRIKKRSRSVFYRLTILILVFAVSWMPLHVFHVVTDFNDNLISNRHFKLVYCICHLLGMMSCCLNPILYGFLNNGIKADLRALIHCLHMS

| Compound | inhibition |
| --- | --- |
| Cc1ccccc1C(=O)c1csc(NCCCNS(=O)(=O)c2ccc(F)cc2)n1 | 16% |
| COc1cccc(S(=O)(=O)NCCCNc2nc(C(=O)c3ccccc3C)cs2)c1 | 12% |

These compounds were tested against T2, Neuropeptide Y receptor type 5 (Mus musculus, UniProt O70342) (assay: Inhibitory concentration against mouse NPY5 receptor […]).
T2 sequence (O70342 whole entry): T1 sequence (whole entry)

| Compound | IC50 |
| --- | --- |
| Cc1ccccc1C(=O)c1cnc(NCCCNS(=O)(=O)c2cc(C(F)(F)F)ccc2Cl)s1 | 0.85 nM |
| Cc1ccccc1C(=O)c1cnc(NCCCNS(=O)(=O)c2cccc(F)c2)s1 | 5.5 nM |
| Cc1ccccc1C(=O)c1csc(NCCCNS(=O)(=O)c2cccs2)n1 | 11 nM |
| COc1ccc(OC)c(S(=O)(=O)NCCCNc2ncc(C(=O)c3ccccc3C)s2)c1 | 1.6 nM |
| COc1ccc(C)cc1S(=O)(=O)NCCCNc1ncc(C(=O)c2ccccc2C)s1 | 0.71 nM |
| COc1cccc(S(=O)(=O)NCCCNc2ncc(C(=O)c3ccccc3C)s2)c1 | 11 nM |
| Cc1ccccc1C(=O)c1csc(NCCCNS(=O)(=O)c2cccc(F)c2)n1 | 64 nM |
| Cc1ccccc1C(=O)c1cnc(NCCCNS(=O)(=O)c2ccc(F)cc2)s1 | 9900 nM |
| Cc1ccccc1C(=O)c1csc(NCCCNS(=O)(=O)c2cc(C(F)(F)F)ccc2Cl)n1 | 9 nM |
| COc1ccc(OC)c(S(=O)(=O)NCCCNc2nc(C(=O)c3ccccc3C)cs2)c1 | 17 nM |
| Cc1ccccc1C(=O)c1cnc(NCCCNS(=O)(=O)c2cccs2)s1 | 1 nM |
